The values below come from patent US20240197666A1, “DITERPENOID COMPOUNDS THAT ACT ON PROTEIN KINASE C (PKC)” (K-Gen Therapeutics, Inc., priority 2021, published 2024).

Each structure is given as a SMILES string. Read-outs that look alike come from different tables or passages of the source. A value given as a limit tells only on which side of the number the result lay.

One assay deals with CT26 tumors. In words: CT26 tumor after single dose intratumoral treatment, H&E stain and CD31 IHC. The settings on record: 24h, all dose levels (47.2 μg, 141.6 μg, and 472 μg). In kind it is in vivo, mouse. The method, then: Method. Each 6-8 weeks old female Balb/c mouse was implanted with 3×10^5 CT26 mouse colon cancer cells in one flank for tumor development. When the average tumor volume reached 95 mm^3, 21 mice were randomized into different groups and were treated via a single IT injection (20 uL) according to the group assignment (different dose and treatment duration) in the table below. Tumors were harvested at 1h, 7h, or 24h post IT injection, and then fixed and processed for paraffin embedding.
Paraffin blocks were sectioned into […] sections using Leica RM2235 microtome. One section was stained for Hematoxylin-Eosin (H&E) using Leica ST5020-CV5030 stainer integrated workstation according to the Manufacture's procedure. Photos were taken using Nikon DS-Ri2. Another section was processed for IHC staining with the CD31 antibody (BD, Cat #550274) at 1:10 dilution. The stained slides were scanned using Leica Aperio VERSA 8 and the images were analyzed using HALO image analysis software system (Indica Labs).

The next assay concerns the target T1, C1b domain of human PKCδ (Homo sapiens, UniProt Q05655).
T1 construct: Genes encoding C1b domains of human PKCα, δ, ε, θ, and PKD1 (PKCμ) were synthesized; made in house; host or cells: E. coli BL21(DE3)
Kind of assay: biochemical. Format: binding. Particulars: 3H-PDBu competition. The method, then:
(§1) Compounds described in this disclosure were tested for binding affinity to C1b domain of PKC isoforms. Compound binding affinity to C1b domain of PKC isoforms was derived from competitive binding assay using radioactive tracer ^3H-PDBu and recombinant GST-C1b or full-length of human PKC proteins based on modified procedures from Methods in Molecular Biology, vol.
(§2) Genes encoding C1b domains of human PKCα, δ, ε, θ, and PKD1 (PKCμ) were synthesized and inserted into pGEX-2TK or pGEX-4T1 vectors for expression and production of GST-C1b proteins in E. coli BL21(DE3) via IPTG induction. The target proteins were purified by glutathione sepharose 4B and followed by ion exchange chromatography if needed to achieve purity >70%. Aliquots of the purified proteins were stored at −80 degree for binding assay (storage buffer: 20 mM Tris pH 8.0, 200 mM NaCl, 10% glycerol, 1 mM DTT).
(§3) The plate was incubated at 37° C. on a shaker at 300 rpm for 10 minutes and then put on ice for 20 minutes. […] The bottom of the filter plate was sealed and 50 μL of MicroScint-20 (PerkinElmer) cocktail was added to each well. ^3H-PDBu trapped in each well was counted using PerkinElmer MicroBeta2 Reader. Data were analyzed using GraphPad Prism5 with the model “log(inhibitor) vs. response-variable slope” to fit the IC50, and then IC50 was transformed to Ki using Cheng-Prusoff equation: Ki=IC50/(1+added radio ligand/Kd). Kd is the binding affinity of each protein preparation to ^3H-PDBu, determined experimentally.

For another assay, the target named is T2, C1b domain of human PKCε (Homo sapiens, UniProt Q02156).
T2 construct: Genes encoding C1b domains of human PKCα, δ, ε, θ, and PKD1 (PKCμ) were synthesized; made in house; host or cells: E. coli BL21(DE3)
In words: biochemical. Format: binding. The settings on record: 3H-PDBu competition. On the procedure: as §1, §2, §3

For another assay, the target named is T3, C1b domain of human PKCθ (Homo sapiens, UniProt Q04759).
T3 construct: Genes encoding C1b domains of human PKCα, δ, ε, θ, and PKD1 (PKCμ) were synthesized; made in house; host or cells: E. coli BL21(DE3)
T3 sequence (Q04759 231-281 limits assumed): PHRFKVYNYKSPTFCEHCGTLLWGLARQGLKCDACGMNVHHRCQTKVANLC
Kind of assay: biochemical. The settings on record: 3H-PDBu competition. In kind it is binding. The method, then:
as §1, §2, §3

For the next assay, the system named is A549 cell line. Kind of assay: Proliferation of A549 (CellTiter Glo). Format: cell-based. Particulars: read-out: IC50 μM (A549 Cell Line). On the procedure: (§4) The diterpenoid compounds were tested in A549, a non-small cell lung cancer cell line harboring a K-Ras activating mutation. Briefly, A549 cells at a density of 1,000 cells/well were seeded in 96-well plates and incubated at 37° C. for 24 hours. A series of different concentrations of compound stocks (500×) were prepared by 3-fold serial dilution in DMSO. These compounds were further diluted in culture media and then added to cells so that the final DMSO concentration was not exceeding 0.25%. After 96 hours of incubation, 50 μL of CellTiter Glo reagent (Promega) was added to each well and luminescence was measured after 10 minutes using EnVision (PerkinElmer). Luminescence from cells treated with DMSO alone was set as Max and % of inhibition was calculated as follows: Inhibition %=(Max-Sample value)/Max×100. Data was analyzed using XL-fit software (ID Business Solutions Ltd.) and IC50, relative IC50, and % of top inhibition was calculated. Some of the compounds in this disclosure were very potent in blocking proliferation of A549 lung cancer cells at low nM range. In addition, potency of inhibiting A549 proliferation correlated well with its binding affinity to PKCs for this series of compounds. In other words, higher affinity binders had stronger inhibitory effects on A549 proliferation. This further support the notion that activation, rather than inhibition, of certain PKC isoforms is required to block proliferation of cancer cells, some of which may harbor K-Ras mutations. This is in sharp contrast to previous literature and common belief that inhibition of PKC is necessary to block cancer cell growth (Kang, 2014, New Journal of Science, 2014:1-36). Data presented here is in agreement with recent findings that many loss-of-function but not gain-of-function mutations of PKC isoforms have been identified in many human cancers (Antal et al., 2015, Cell, 160:489-502).

The subject of a further assay is HL-60 (Leukemia). In words: Proliferation of HL-60. In kind it is cell-based. On the procedure:
as §4
(§5) The compounds in this disclosure were tested for their potency in blocking proliferation of a few other cancer cells lines, including K-Ras mutant pancreatic cell lines Panc2.13 and KP-4, leukemia cell line HL-60, and lymphoma cell lines Namalwa and Mino. Similar procedures as in Example 67 were followed. Initial cell numbers seeded in 96-well plates were different for different cell lines: 3000 cells/well for Panc2.13; 800-1000 cells/well for KP-4; 5000 cells/well for HL-60; 5000-10000 cells/well for Namalwa and Mino. A ratio of (IC50 of K101)/(IC50 of compound) (data in parenthesis in Table 5) was used to normalize the compound potency from different assay batches to a common comparator K101.

The test system of another assay is Namalwa (Lymphoma). Kind of assay: Proliferation of Namalwa. Format: cell-based. On the procedure:
as §4, §5

The subject of a further assay is Mino (Lymphoma). In words: Proliferation of Mino. Format: cell-based. The method, then: as §4, §5
For assay [1], the system named is NFκB-driven transcription in HeLa-NFκB luciferase reporter cell line. Kind of assay: NFκB luciferase reporter assay. Particulars: Homo sapiens, HeLa, 16 h, read-out: NFκB-luc HeLa cells EC50 (μM). (In general: A reporter such as luciferase makes a cellular process visible.)
For assay [2], the target named is T4, C1b domain of human PKD1 (PKCμ) (Homo sapiens, UniProt Q15139).
T4 construct: Genes encoding C1b domains of human PKCα, δ, ε, θ, and PKD1 (PKCμ) were synthesized; made in house; host or cells: E. coli BL21(DE3)
T4 sequence (Q15139 270-320 limits assumed): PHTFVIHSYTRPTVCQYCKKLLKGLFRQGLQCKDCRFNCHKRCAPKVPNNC
Kind of assay: Competitive 3H-PDBu binding assay, C1b domain of PKD1 (PKCμ). The settings on record: 3H-PDBu competition. The method, then: as §1, §2, §3

T2 sequence (Q02156 242-292 limits assumed): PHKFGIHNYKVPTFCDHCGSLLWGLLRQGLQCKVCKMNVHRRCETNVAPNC
T1 sequence (Q05655 230-280 limits assumed): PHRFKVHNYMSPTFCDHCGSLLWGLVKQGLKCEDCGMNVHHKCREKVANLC

In the case of `CC1=C[C@H]2[C@@]3(O)[C@H](C)C[C@]4(OC(=O)[C@H](N)CCCCCCc5ccccc5)[C@H]([C@@H]3C=C(COC(=O)[C@@H](N)C(C)C)C[C@]2(O)C1=O)C4(C)C`, in the assay on CT26 tumors, the “reduction of CD31 density, on average, compared with the vehicle control” value is above 50%.

As to `CC1=C[C@H]2[C@@]3(O)[C@H](C)C[C@]4(OC(=O)[C@H](N)C(C)(C)c5ccc(C(F)(F)F)cc5)[C@H]([C@@H]3C=C(CO)C[C@]2(O)C1=O)C4(C)C`, the inhibitory constant (Ki) at C1b domain of human PKCδ, on C1b domain of human PKCε and at C1b domain of human PKCθ was 10 to 30 nM in each case. For the same molecule, the IC50 in the assay with A549 cell line (Homo sapiens, A549, 96 h) was 0.2 to 0.6 µM; with HL-60 (Leukemia) (Homo sapiens, HL-60, read-out: IC50 HL-60 (Leukemia)) it was 100 to 200 nM; with Namalwa (Lymphoma) (read-out: IC50 Namalwa (Lymphoma)), 100 to 200 nM; in the assay with Mino (Lymphoma) (Homo sapiens, MINO, read-out: IC50 Mino (Lymphoma)), 10 to 30 nM. Besides, in the assay on HL-60 (Leukemia), the “ratio (IC50 of K101)/(IC50 of compound) HL-60” value is 2.75. Besides, in the assay on Namalwa (Lymphoma), the “ratio (IC50 of K101)/(IC50 of compound) Namalwa” value is reported as 0.49. Further, the “ratio (IC50 of K101)/(IC50 of compound) Mino” value in the assay on Mino (Lymphoma) is reported as 3.88. In addition, in assay [1], the EC50 is 0.1 to 0.2 µM.

`CC1=C[C@H]2[C@@]3(O)[C@H](C)C[C@]4(OC(=O)[C@H](N)CCCCCCc5ccc(C(F)(F)F)cc5)[C@H]([C@@H]3C=C(CO)C[C@]2(O)C1=O)C4(C)C`: the inhibition constant Ki on C1b domain of human PKCε fell in the range of 60 to 100 nM; in assay [2], 10 to 30 nM. Further, the IC50 with A549 cell line (Homo sapiens, A549, 96 h) was in the range of 0.06 to 0.1 µM.

Turning to `CC1=C[C@H]2[C@@]3(O)[C@H](C)C[C@]4(OC(=O)[C@H](N)CCCCCCCCc5ccccc5)[C@H]([C@@H]3C=C(CO)C[C@]2(O)C1=O)C4(C)C`, the Ki at C1b domain of human PKCδ, at C1b domain of human PKCε and on C1b domain of human PKCθ was 10 to 30 nM in each case. The half-maximal inhibitory concentration (IC50) in the assay on A549 cell line (Homo sapiens, A549, 96 h) fell in the range of 0.01 to 0.03 µM.

For the molecule `CC1=C[C@H]2[C@@]3(O)[C@H](C)C[C@]4(OC(=O)[C@@H](N)CCCCCCc5ccc(C(F)F)cc5)[C@H]([C@@H]3C=C(CO)C[C@]2(O)C1=O)C4(C)C`, the inhibitory constant (Ki) at C1b domain of human PKCδ and on C1b domain of human PKCθ was 10 to 30 nM throughout. The IC50 in the assay with A549 cell line (Homo sapiens, A549, 96 h) was 0.1 to 0.2 µM.

As for `CCCCCCCCCCCCCC(=O)O[C@@H]1[C@@H](C)[C@@]2(O)[C@@H](C=C(CO)C[C@]3(O)C(=O)C(C)=C[C@@H]23)[C@@H]2C(C)(C)[C@]12OC(C)=O` [Compound K103, 12-O-Tetradecanoylphorbol-13-acetate, reference compound], the inhibitory constant (Ki) (on C1b domain of human PKCδ; on C1b domain of human PKCε; on C1b domain of human PKCθ; in [2]) was below 5 nM in each case. Also, the IC50 in the assay on A549 cell line (96 hours, CellTiter Glo) was below 0.01 µM.

For orientation: Ki means a dissociation constant, usually derived from enzyme kinetics or from competition with a known ligand. The low end stands for a stronger hold on the target, the high end for a looser hold on the target. Broadly, the IC50 is the concentration that inhibits the measured activity by half. What is called EC50 is the concentration at which the effect is half-maximal.
